This is an account of results in patent publication US9850247B2 (Almac Discovery Limited, priority 2013, dated 2017).

What is called IC50 is the concentration that inhibits the measured activity by half.

Read-outs that look alike come from different tables or passages of the source. Bounds are passed on as bounds.

For test [1], the target named is T1, Wee-1 kinase (Homo sapiens, UniProt P30291).
T1 construct: purchased Invitrogen PV3817
Kind of test: Measurement of Wee-1 kinase activity (ADP-Glo luminescent kit). Type of test: biochemical. The method, boiled down: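 ADP-Glo luminescence reads ADP made over 1 h at RT, after an aliquot of 30 μM ATP and 2.0 μg/mL poly(Lys,Tyr 4:1) substrate. Before that, the kinase sat 30 min with inhibitor in Tris-HCl/MgCl2 buffer with BSA and DTT. IC50 came from regression of percent inhibition.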

In test [2] the test system is phospho-cdc2 (Tyr15) in HT-29 cells. Kind of test: Effect on Cdc2 phosphorylation at Tyr15, Cell-Based ELISA Base Kit (Method 3). The note with it: eight hours incubation, normalized to total cdc2, read-out: HT29 pCDC2 method 3. The protocol: Method 3: Determining the Effect of Compounds on the Cdc2 phosphorylation at Tyr15, using a Cell-Based ELISA Base Kit (R&D Systems, KCB001)
The colorectal cancer cell line, HT-29 was purchased from the ATCC and maintained in McCoy's 5 A medium (Gibco®, Life technologies) supplemented with 10% Foetal Calf Serum (FCS).
The cells were trypsinised and counted, 100 μL of 8000 cells was seeded into each well of a clear-bottom black 96-well microplate and incubated overnight to allow adherence to the surface, at 37° C. and 5% CO2 in a cell culture incubator.
Test compounds were formulated in DMSO and diluted in cell culture medium supplemented with FCS. Grow medium was removed from cells and medium containing compounds dilutions was added to each well. The plate was returned to the incubator for an additional eight hours of incubation at 37° C. and 5% CO2.
Post incubation cells were fixed by replacing the compounds supplemented medium with 100 μL of 4% formaldehyde in 1× phosphate buffered saline (PBS), for 20 minutes at room temperature. Formaldehyde solution was removed and cells were washed three times with PBS. The Cell-Based ELISA assay (R&D Systems) was carried out immediately after cell fixation or the plate was sealed and fixed cells were stored in PBS at 4° C. until required (no more than two weeks).
To continue the assay, PBS was removed and cells were washed 3 times for 5 minutes with 200 μL of 1× wash buffer. Each wash step was carried out with gentle shaking. Following washes, 100 μL of 0.6% H2O2 in 1× wash buffer (quenching buffer) was added, plate was sealed and incubated for 20 minutes at room temperature. Post incubation cells were washes 3 times for 5 minutes with 200 μL of 1× wash buffer, with gentle shaking. 100 μL of blocking buffer was added to each well, the plate was re-sealed and incubated at room temperature for 1 h.
After blocking, cells were washed as described above. A primary antibody mixture was prepared by mixing the two primary antibodies, a rabbit monoclonal antibody for phospho-cdc2 (Tyr15) (Cell Signaling, #4539) and mouse monoclonal antibody for total cdc2 p34 (Santa Cruz Biotechnology, sc-54), diluted 1:25 and 1:50 in blocking buffer, respectively. 60 μL of primary antibody mixture was added to each well, the plate was sealed and incubated overnight at 4° C.
The primary antibodies were removed and cells were washed as previously described. 100 μL of secondary antibody mixture, containing horseradish-peroxidase (HRP)-conjugated goat anti-rabbit IgG and alkaline phosphatase (AP)-conjugated goat anti-mouse IgG, diluted 1:100 in blocking buffer, was added to each test well. The plate was re-sealed and incubated for 2 hours at room temperature.
The secondary antibodies were removed and cells washed 2 times with wash buffer, followed by 2 washes with PBS. Each wash step was carried out for 5 minutes with gentle shaking. PBS was removed and 75 μL of fluorogenic substrate for HRP (substrate F1) added to each well. The plate was sealed and incubated for 1 h at room temperature, in the dark. 75 μL of fluorogenic substrate for AP (substrate F2) was added directly to each well, plate re-sealed and incubated for additional 40 minutes at room temperature, protected from direct light.
Following incubation fluorescence from each well was read at 600 nm (signal from substrate 1, phosphorylated protein) and then at 450 nm (signal from substrate 2, total protein).
The percentage of phospho-cdc2 was calculated compared to DMSO control, normalized to the total cdc2 and plotted versus the concentration of inhibitor, using GraphPad Prism. Data was fitted using a non-linear regression analysis and EC50 values generated.

T1 sequence (P30291 whole entry): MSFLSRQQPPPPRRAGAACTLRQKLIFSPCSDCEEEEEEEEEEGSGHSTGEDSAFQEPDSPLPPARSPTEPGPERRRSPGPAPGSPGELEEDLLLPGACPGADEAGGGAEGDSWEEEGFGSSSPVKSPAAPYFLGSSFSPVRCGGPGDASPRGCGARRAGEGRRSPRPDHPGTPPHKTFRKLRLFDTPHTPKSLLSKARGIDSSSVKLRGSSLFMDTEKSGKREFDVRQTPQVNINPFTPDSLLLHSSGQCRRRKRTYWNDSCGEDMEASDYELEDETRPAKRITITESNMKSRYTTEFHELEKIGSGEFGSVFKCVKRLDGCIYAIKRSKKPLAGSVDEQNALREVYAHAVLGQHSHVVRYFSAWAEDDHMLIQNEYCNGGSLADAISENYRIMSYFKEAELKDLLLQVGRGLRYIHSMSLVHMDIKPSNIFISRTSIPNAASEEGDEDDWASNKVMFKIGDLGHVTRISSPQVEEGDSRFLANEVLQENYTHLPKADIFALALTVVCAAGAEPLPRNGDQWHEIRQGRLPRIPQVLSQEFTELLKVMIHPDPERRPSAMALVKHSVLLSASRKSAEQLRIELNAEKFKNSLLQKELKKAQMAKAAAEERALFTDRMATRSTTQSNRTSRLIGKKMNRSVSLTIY

For `COC[C@H]1CN(c2ccc(Nc3ncc4c(n3)N(C)CN(c3c(Cl)cccc3Cl)C4=O)cc2C(O)C(F)(F)F)CCN1` (single isomer, unassigned) [Example 184], the half-maximal inhibitory concentration (IC50) in test [1] was at most 10 nM. In addition, the EC50 in test [2] was at least 1000 nM.
With `CN1CN(c2c(Cl)cccc2Cl)C(=O)c2cnc(Nc3ccc(N4CC5COCC(C4)N5)c(CO)c3)nc21` [Example 173, 7-((4-(3-oxa-7,9-diazabicyclo[3.3.1]nonan-7-yl)-3-(hydroxymethyl)phenyl)amino)-3-(2,6-dichlorophenyl)-1-methyl-2,3-dihydropyrimido[4,5-d]pyrimidin-4(1H)-one], in test [1], the IC50 lay within 10 to 100 nM. The EC50 in test [2] (Homo sapiens, HT-29, 8 h) lay in the range of 100 to 1000 nM.
Regarding `CN1CC=C(c2ccc(Nc3ncc4c(n3)N(C)CN(c3c(Cl)cccc3Cl)C4=O)cc2CO)CC1` [Example 180, 3-(2,6-dichlorophenyl)-7-((3-(hydroxymethyl)-4-(1-methyl-1,2,3,6-tetrahydropyridin-4-yl)phenyl)amino)-1-methyl-2,3-dihydropyrimido[4,5-d]pyrimidin-4(1H)-one], the IC50 in test [1] was at most 10 nM. Moreover, the EC50 in test [2] (Homo sapiens, HT-29, 8 h) is 100 to 1000 nM.
The matching figures for `CNCc1cc(Nc2ncc3c(n2)N(C)CN(c2c(Cl)cccc2Cl)C3=O)ccc1-c1cnn(C)c1` [Example 160, 3-(2,6-dichlorophenyl)-1-methyl-7-((4-(1-methyl-1H-pyrazol-4-yl)-3-((methylamino)methyl)phenyl)amino)-2,3-dihydropyrimido[4,5-d]pyrimidin-4(1H)-one]: 10 to 100 nM and at least 1000 nM.
In the case of `CN1CN(c2c(Cl)cccc2Cl)C(=O)c2cnc(Nc3ccc(N4C[C@@H]5C[C@H]4CN5)c(CO)c3)nc21` [Example 164, 7-((4-((1S,4S)-2,5-diazabicyclo[2.2.1]heptan-2-yl)-3-(hydroxymethyl)phenyl)amino)-3-(2,6-dichlorophenyl)-1-methyl-2,3-dihydropyrimido[4,5-d]pyrimidin-4(1H)-one], the IC50 in test [1] was at most 10 nM. Further, the EC50 in test [2] (Homo sapiens, HT-29, 8 h) is at least 1000 nM.
For `CN(C)CC(O)c1cccc(Nc2ncc3c(n2)N(C)CN(c2c(Cl)cccc2Cl)C3=O)c1` (stereo not drawn) [Example 172, 3-(2,6-dichlorophenyl)-7-((3-(2-(dimethylamino)-1-hydroxyethyl)phenyl)amino)-1-methyl-2,3-dihydropyrimido[4,5-d]pyrimidin-4(1H)-one], in test [1], the IC50 was in the range of 10 to 100 nM. Moreover, in test [2] (Homo sapiens, HT-29, 8 h), the EC50 is at least 1000 nM.
Regarding `CN1CN(c2c(Cl)cccc2Cl)C(=O)c2cnc(Nc3ccc4c(c3)C3CCC4N3C)nc21` (stereo not drawn) [Example 175, 3-(2,6-dichlorophenyl)-1-methyl-7-((9-methyl-1,2,3,4-tetrahydro-1,4-epiminonaphthalen-6-yl)amino)-2,3-dihydropyrimido[4,5-d]pyrimidin-4(1H)-one], the IC50 in test [1] is at most 10 nM. In addition, the EC50 in test [2] (Homo sapiens, HT-29, 8 h) was 100 to 1000 nM.
The matching figures for `CN1CN(c2c(Cl)cccc2Cl)C(=O)c2cnc(Nc3ccc(N4C[C@@H]5C[C@H]4CN5C)c(CO)c3)nc21` [Example 176, 3-(2,6-dichlorophenyl)-7-((3-(hydroxymethyl)-4-((1S,4S)-5-methyl-2,5-diazabicyclo[2.2.1]heptan-2-yl)phenyl)amino)-1-methyl-2,3-dihydropyrimido[4,5-d]pyrimidin-4(1H)-one]: at most 10 nM and 100 to 1000 nM.
On to `COC[C@H]1CN(c2ccc(Nc3ncc4c(n3)N(C)CN(c3c(Cl)cccc3Cl)C4=O)cc2C(O)C(F)(F)F)CCN1` (single isomer, unassigned) [Example 185], for which the concentration for half-maximal inhibition (IC50) in test [1] is at most 10 nM. The EC50 in test [2] was in the range of 100 to 1000 nM.
For `C[C@@H]1CN(c2ccc(Nc3ncc4c(n3)N(C)CN(c3ccccc3Cl)C4=O)cc2)C[C@H](C)N1` [Example 103, 3-(2-chlorophenyl)-7-((4-((3S,5R)-3,5-dimethylpiperazin-1-yl)phenyl)amino)-1-methyl-2,3-dihydropyrimido[4,5-d]pyrimidin-4(1H)-one], in test [1], the IC50 lay within 10 to 100 nM. The EC50 in test [2] (Homo sapiens, HT-29, 8 h) lay in the range of 100 to 1000 nM.
The matching figures for `Cc1cc(Nc2ncc3c(n2)N(C)CN(c2c(Cl)cccc2Cl)C3=O)ccc1C1=CCN(C)CC1` [Example 178, 3-(2,6-dichlorophenyl)-1-methyl-7-((3-methyl-4-(1-methyl-1,2,3,6-tetrahydropyridin-4-yl)phenyl)amino)-2,3-dihydropyrimido[4,5-d]pyrimidin-4(1H)-one]: at most 10 nM and 100 to 1000 nM.
The matching figures for `CN1CN(c2c(Cl)cccc2Cl)C(=O)c2cnc(Nc3ccc(C4=CCNCC4)c(CO)c3)nc21` [Example 179, 3-(2,6-dichlorophenyl)-7-((3-(hydroxymethyl)-4-(1,2,3,6-tetrahydropyridin-4-yl)phenyl)amino)-1-methyl-2,3-dihydropyrimido[4,5-d]pyrimidin-4(1H)-one]: at most 10 nM and at least 1000 nM.
For `COC[C@H]1CN(c2ccc(Nc3ncc4c(n3)N(C)CN(c3c(Cl)cccc3Cl)C4=O)cc2C(O)C(F)F)CCN1` (single isomer, unassigned) [Example 163], the half-inhibitory concentration (IC50) in test [1] was at most 10 nM. For the same compound, the EC50 in test [2] is 100 to 1000 nM.
For the compound `O=C1c2cnc(Nc3ccc(N4CCNCC4)cc3)nc2N(c2ccccc2)CN1c1c(Cl)cccc1Cl` [Example 171, 3-(2,6-dichlorophenyl)-1-phenyl-7-((4-(piperazin-1-yl)phenyl)amino)-2,3-dihydropyrimido[4,5-d]pyrimidin-4(1H)-one], in test [1], the half-inhibitory concentration (IC50) was at most 10 nM. The EC50 in test [2] (Homo sapiens, HT-29, 8 h) fell in the range of 100 to 1000 nM.
The matching figures for `Cc1cc(Nc2ncc3c(n2)N(C)CN(c2c(Cl)cccc2Cl)C3=O)ccc1C1=CCNCC1` [Example 177, 3-(2,6-dichlorophenyl)-1-methyl-7-((3-methyl-4-(1,2,3,6-tetrahydropyridin-4-yl)phenyl)amino)-2,3-dihydropyrimido[4,5-d]pyrimidin-4(1H)-one]: at most 10 nM and 100 to 1000 nM.
The matching figures for `CN1CN(c2c(Cl)cccc2Cl)C(=O)c2cnc(Nc3ccc4c(c3)C3CCC4N3)nc21` (stereo not drawn) [Example 166, 3-(2,6-dichlorophenyl)-1-methyl-7-((1,2,3,4-tetrahydro-1,4-epiminonaphthalen-6-yl)amino)-2,3-dihydropyrimido[4,5-d]pyrimidin-4(1H)-one]: 10 to 100 nM and at least 1000 nM.
The matching figures for `CCNCc1cc(Nc2ncc3c(n2)N(C)CN(c2c(Cl)cccc2Cl)C3=O)ccc1N1CCOCC1` [Example 174, 3-(2,6-dichlorophenyl)-7-((3-((ethylamino)methyl)-4-morpholinophenyl)amino)-1-methyl-2,3-dihydropyrimido[4,5-d]pyrimidin-4(1H)-one]: 10 to 100 nM and at least 1000 nM.
For the compound `CN1CN(c2c(Cl)cccc2Cl)C(=O)c2cnc(Nc3ccc(C4CCN(C5CCC5)CC4)c(CO)c3)nc21` [Example 181, 7-((4-(1-cyclobutylpiperidin-4-yl)-3-(hydroxymethyl)phenyl)amino)-3-(2,6-dichlorophenyl)-1-methyl-2,3-dihydropyrimido[4,5-d]pyrimidin-4(1H)-one], the IC50 in test [1] is at most 10 nM. The EC50 in test [2] (Homo sapiens, HT-29, 8 h) was 100 to 1000 nM.
